# Measured values taken from patent publication US12110287B2, “Heterocyclic derivatives as Nav1.7 and Nav1.8 blockers” (RaQualia Pharma Inc., priority 2018, dated 2024).
# Experiments:
# Nav1.7 [1] = molecular target: T1, Nav1.7 (Homo sapiens, UniProt Q15858); experiment: EFS-FRET assay; type: cell-based; parameters: expressed in transfected cells; host or cells: CHO (Chinese hamster ovary) cells; conditions: CHO cells expressing human Nav1.7 channels, read-out: IC50 against Nav1.7
# Experimental: This screen is used to determine the effects of compounds on human Nav1.7 channels, utilizing electrical field stimulation (EFS) system in 96-well plate format on FDSS (Hamamatsu Photonics) platform. The changes of membrane potential are monitored with FRET dye pair, DiSBAC2(3) and PTS18.
# CHO (Chinese hamster ovary) cells expressing human Nav1.7 channels are grown in T225 flasks, in a 5% CO2 humidified incubator to about 80% confluence. Media composition consists of HAM/F12 with Glutamax I, 10% FCS, 100 units/mF penicillin and 100 microgram/mF hygromycin.
# • Seed each cell lines (1×10^5 cells/well) into 96-well plates prior to experimentation. • Incubate at 37° C. in 5% CO2 for 24 hours. • Wash each well with assay buffer (140 mM NaCl, 4.5 mM KCl, 10 mM D-Glucose, 2 mM CaCl2, 1 mM MgCl2, 10 mM HEPES, pH 7.4 adjusted with NaOH) twice. • Add 1st loading solution containing 10 microM PTS18 and 0.06% Pluronic F-127 in assay buffer. • Incubate the plate at rt in dark for 1 hour. • Remove 1st loading solution and add 2nd loading solution containing 12.5 microM DiSBAC2(3), 1.25 mM Xylene Fast Yellow and 0.0075% Pluronic F-127 in assay buffer. • Place the plate under the dark at rt for 25 minutes. • Add compound solutions into the assay plate. • Set the assay plate in FDSS and place an EFS device on the plate. • Measure EFS-induced fluorescent response by FDSS.
# The data are analyzed and reported as normalized ratios of intensities measured at […]. The process of calculating these ratios is performed as follows:
# This analysis is performed using a computerized specific program designed for FDSS generated data. Fluorescence ratio values are plotted using XLfit to determine an IC50 value for each compound.
# Nav1.7 [2] = molecular target: T1, Nav1.7; experiment: Electrophysiology assay (whole cell patch clamp), affinity to inactivated state; type: cell-based; parameters: expressed in transfected cells; conditions: affinity to inactivated state (Kinact), read-out: activity (Ki) against Nav1.7
# Experimental: Whole cell patch clamp recording is used to assess the efficacy or selectivity of Na (Sodium) channel blocker on human voltage gated sodium channels. Na channel expressing cells are dissociated by 0.05% Trypsin-EDTA or Accutase, and then seeded on cover glass for 2-24 hours.
# Manual patch clamp recordings are conducted at rt using the voltage-clamp amplifier (Axon Instruments or HEKA electronik). Electrodes are pulled with P-97 electrode puller (Sutter Instrument). The electrode resistances are 1-3 MOhm when intercellular solution is filled. Currents are lowpass filtered between 2-5 kHz and digitally sampled at 10 kHz. […]
# After whole-cell configuration is achieved, cell is monitored at least 10 minutes to allow cell dialysis with pipette solution. […]
# Peak currents evoked by Test 1 and Test 2 pulses are sampled with Clampex (Axon Instruments) or Pulse+Pulse Fit (HEKA). Averaged peak currents under vehicle or test compounds are calculated from 3 data points at end of each condition.
# Inhibitory effects (% inhibition) on peak currents at Test 1 or Test 2 pulse are plotted against test concentration and IC50 values at Test 1 (Closed IC50) or Test 2 (Inactivated IC50) are calculated with Hill equation, respectively. […]
# After whole-cell configuration is achieved, the cell is monitored at least 10-15 minutes to allow cell dialysis with pipette solution. […]
# T1 sequence (Q15858 whole entry): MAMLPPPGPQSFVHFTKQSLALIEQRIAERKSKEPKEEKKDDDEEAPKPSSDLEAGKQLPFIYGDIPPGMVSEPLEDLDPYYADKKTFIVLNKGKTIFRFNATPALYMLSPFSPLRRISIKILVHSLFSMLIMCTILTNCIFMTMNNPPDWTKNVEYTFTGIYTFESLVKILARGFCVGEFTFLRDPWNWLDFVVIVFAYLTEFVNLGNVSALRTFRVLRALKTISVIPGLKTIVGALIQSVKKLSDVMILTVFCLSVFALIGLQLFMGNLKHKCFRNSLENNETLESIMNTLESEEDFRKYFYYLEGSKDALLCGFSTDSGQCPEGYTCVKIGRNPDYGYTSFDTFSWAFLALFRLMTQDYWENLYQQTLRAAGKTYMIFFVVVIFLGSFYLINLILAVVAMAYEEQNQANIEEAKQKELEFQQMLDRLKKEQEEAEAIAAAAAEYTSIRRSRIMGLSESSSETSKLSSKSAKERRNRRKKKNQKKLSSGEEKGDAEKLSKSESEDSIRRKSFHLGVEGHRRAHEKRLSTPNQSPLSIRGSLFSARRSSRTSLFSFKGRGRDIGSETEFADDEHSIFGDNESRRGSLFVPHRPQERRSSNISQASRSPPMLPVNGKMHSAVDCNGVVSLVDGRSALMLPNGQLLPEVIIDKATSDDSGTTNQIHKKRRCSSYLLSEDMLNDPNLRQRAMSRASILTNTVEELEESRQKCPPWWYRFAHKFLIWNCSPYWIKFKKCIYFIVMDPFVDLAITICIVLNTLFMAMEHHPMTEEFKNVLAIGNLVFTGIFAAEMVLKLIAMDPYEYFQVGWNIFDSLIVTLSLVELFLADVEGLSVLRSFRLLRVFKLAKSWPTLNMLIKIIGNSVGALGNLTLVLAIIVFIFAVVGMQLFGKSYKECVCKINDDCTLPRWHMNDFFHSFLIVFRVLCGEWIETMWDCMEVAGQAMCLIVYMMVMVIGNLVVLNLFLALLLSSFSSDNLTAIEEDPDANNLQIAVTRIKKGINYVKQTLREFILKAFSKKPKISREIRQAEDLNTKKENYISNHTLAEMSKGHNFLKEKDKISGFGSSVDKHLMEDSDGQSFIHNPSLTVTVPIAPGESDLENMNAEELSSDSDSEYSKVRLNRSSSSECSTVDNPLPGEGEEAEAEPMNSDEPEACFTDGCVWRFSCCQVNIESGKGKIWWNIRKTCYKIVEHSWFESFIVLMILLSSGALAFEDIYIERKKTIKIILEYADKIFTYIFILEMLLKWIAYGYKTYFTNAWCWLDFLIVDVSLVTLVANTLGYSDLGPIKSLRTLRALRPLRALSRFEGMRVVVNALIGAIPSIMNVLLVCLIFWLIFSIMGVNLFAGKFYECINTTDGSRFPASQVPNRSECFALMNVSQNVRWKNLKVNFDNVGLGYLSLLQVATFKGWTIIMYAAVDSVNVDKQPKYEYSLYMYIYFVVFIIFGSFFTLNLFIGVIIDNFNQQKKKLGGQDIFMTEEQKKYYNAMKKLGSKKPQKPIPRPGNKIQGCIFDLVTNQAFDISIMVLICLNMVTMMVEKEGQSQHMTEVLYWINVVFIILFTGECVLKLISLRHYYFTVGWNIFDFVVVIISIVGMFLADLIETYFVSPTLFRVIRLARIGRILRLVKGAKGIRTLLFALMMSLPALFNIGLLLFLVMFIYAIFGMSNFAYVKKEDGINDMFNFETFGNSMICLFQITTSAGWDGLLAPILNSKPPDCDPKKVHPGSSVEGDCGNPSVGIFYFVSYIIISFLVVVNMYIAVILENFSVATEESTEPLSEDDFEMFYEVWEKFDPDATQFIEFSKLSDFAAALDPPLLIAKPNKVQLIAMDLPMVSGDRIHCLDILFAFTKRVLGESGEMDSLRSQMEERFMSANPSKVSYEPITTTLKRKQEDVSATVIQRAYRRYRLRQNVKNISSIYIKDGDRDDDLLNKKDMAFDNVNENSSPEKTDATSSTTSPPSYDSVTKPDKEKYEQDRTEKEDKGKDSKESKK
smiles,measurement,setting,value
O=C(N[C@@H]1CCCN(c2ncc(C(F)(F)F)cc2Cl)C1)c1ccnc(NC(=O)C2CC2)c1 [Example 7],IC50,Nav1.7 [1],< 500 nM
same,Ki,Nav1.7 [2],< 200 nM
